Values of other authors as cited in US20040223971A1, “Composition and uses of galectin antagonists” (GlycoGenesys, Inc., priority 2003, published 2004).

Experiments:
[1] = system: galectin-3 transfected BT549 cells
BT549 cells = BT549 cells without detectable galectin-3

SMILES: O=c1c(-c2ccc(O)cc2)coc2cc(O)cc(O)c12 [genistein]
- cell cycle arrest / apoptosis [1]: cell cycle arrest at the G(2)/M phase takes place without apoptosis induction
- apoptosis induction (BT549 cells): effectively induces apoptosis
